{"source": "patent US11542240B2", "about": "“STK19 inhibitors for treatment of cancer” (TRUSTEES OF BOSTON UNIVERSITY, priority 2018, dated 2023)", "experiment_in_all_cases": "biochemical", "assay_type_in_all_cases": "binding", "key": {"[1]": {"biological_target": "panel of 468 diverse kinases (Homo sapiens, UniProt P54753)", "sequence (P54753 34-998 limits assumed)": "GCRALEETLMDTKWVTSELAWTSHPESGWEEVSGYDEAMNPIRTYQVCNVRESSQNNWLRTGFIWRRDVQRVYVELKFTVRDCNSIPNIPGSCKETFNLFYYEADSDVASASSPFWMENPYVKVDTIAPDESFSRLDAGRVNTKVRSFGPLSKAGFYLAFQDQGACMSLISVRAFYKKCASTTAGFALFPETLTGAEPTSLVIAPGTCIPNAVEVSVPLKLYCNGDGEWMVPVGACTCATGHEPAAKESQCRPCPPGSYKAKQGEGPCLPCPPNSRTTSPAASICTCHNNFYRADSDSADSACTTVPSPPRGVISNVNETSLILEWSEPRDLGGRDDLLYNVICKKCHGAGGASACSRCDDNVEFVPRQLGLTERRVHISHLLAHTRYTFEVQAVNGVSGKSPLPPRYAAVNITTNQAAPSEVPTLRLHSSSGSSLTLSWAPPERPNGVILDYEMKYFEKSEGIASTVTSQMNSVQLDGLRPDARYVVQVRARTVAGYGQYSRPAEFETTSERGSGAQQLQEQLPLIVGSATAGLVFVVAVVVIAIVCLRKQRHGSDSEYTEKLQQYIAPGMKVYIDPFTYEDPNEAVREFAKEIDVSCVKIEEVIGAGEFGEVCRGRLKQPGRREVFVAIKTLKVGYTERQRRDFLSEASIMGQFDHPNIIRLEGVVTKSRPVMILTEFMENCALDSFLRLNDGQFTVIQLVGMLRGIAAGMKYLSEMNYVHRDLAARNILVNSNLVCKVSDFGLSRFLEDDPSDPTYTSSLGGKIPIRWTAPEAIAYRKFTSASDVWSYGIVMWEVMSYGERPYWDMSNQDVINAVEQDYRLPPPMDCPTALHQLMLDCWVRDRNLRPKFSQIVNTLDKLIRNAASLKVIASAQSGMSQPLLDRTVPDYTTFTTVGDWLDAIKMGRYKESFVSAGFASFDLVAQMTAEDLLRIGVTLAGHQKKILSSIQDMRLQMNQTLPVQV", "settings": "EPHB3; 1000 nM; read-out: Percent Control"}, "[2]": {"biological_target": "panel of 468 diverse kinases (Homo sapiens, UniProt P00519)", "settings": "1000 nM, read-out: Percent Control"}, "[3]": {"biological_target": "panel of 468 diverse kinases (Homo sapiens, UniProt P00519, Q252H)", "settings": "1000 nM, read-out: Percent Control"}, "[4]": {"biological_target": "panel of 468 diverse kinases (Homo sapiens, UniProt Q92918)", "settings": "HPK1; 1000 nM; read-out: Percent Control"}, "[5]": {"biological_target": "panel of 468 diverse kinases (Homo sapiens, UniProt Q9HCP0)", "settings": "CSNK1G1; 1000 nM; read-out: Percent Control"}, "[6]": {"biological_target": "panel of 468 diverse kinases (Homo sapiens, UniProt Q13153)", "sequence (Q13153 2-545 limits assumed)": "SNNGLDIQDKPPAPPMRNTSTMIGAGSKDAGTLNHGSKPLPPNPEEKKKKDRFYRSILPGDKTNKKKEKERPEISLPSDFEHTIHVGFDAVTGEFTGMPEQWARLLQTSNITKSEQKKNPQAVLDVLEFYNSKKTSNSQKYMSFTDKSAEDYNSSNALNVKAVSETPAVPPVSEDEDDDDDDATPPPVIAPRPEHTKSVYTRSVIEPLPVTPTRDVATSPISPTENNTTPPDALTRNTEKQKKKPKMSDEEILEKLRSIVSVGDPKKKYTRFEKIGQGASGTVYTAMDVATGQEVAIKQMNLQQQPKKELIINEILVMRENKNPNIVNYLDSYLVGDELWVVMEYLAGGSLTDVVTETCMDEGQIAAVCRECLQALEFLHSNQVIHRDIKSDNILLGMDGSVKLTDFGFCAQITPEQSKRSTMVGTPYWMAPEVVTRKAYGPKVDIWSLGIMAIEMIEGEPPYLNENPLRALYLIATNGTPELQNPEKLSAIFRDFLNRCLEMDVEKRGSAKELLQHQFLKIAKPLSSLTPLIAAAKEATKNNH", "settings": "PAK1; 1000 nM; read-out: Percent Control"}, "[7]": {"biological_target": "panel of 468 diverse kinases (Homo sapiens, UniProt Q8IWQ3)", "settings": "BRSK2; 1000 nM; read-out: Percent Control"}, "[8]": {"biological_target": "panel of 468 diverse kinases (Homo sapiens, UniProt Q8N5S9)", "settings": "CAMKK1; 1000 nM; read-out: Percent Control"}, "[9]": {"biological_target": "panel of 468 diverse kinases (Homo sapiens, UniProt Q9NRH2)", "settings": "SNRK; 1000 nM; read-out: Percent Control"}, "[10]": {"biological_target": "panel of 468 diverse kinases (Homo sapiens, UniProt O15264)", "settings": "p38-delta; 1000 nM; read-out: Percent Control"}, "[11]": {"biological_target": "panel of 468 diverse kinases (Homo sapiens, UniProt P22607, G697C)", "sequence (P22607 23-806 G697C limits assumed)": "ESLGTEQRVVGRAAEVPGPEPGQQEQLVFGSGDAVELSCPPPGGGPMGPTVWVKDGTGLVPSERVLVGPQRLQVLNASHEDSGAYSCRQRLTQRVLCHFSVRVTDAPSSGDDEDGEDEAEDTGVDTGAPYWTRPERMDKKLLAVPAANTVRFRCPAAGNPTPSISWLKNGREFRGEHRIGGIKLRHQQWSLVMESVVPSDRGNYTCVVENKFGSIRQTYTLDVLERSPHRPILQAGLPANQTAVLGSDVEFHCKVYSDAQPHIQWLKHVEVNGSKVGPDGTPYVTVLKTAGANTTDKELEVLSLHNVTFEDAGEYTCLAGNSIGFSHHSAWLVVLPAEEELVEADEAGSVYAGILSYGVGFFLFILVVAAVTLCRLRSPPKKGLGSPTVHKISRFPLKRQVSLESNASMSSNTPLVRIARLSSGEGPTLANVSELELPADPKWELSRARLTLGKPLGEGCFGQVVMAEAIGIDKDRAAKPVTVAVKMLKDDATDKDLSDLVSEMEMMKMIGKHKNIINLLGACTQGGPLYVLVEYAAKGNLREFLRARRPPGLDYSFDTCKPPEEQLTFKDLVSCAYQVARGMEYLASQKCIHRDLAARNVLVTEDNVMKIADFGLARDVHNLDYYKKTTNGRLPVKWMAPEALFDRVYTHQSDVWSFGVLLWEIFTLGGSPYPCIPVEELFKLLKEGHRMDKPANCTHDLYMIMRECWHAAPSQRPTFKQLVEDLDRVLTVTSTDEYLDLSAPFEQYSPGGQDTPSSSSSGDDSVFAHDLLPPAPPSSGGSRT", "settings": "FGFR3(G697C); 1000 nM; read-out: Percent Control"}, "[12]": {"biological_target": "panel of 468 diverse kinases (Homo sapiens, UniProt P24723)", "settings": "PRKCH; 1000 nM; read-out: Percent Control"}, "[13]": {"biological_target": "panel of 468 diverse kinases (Homo sapiens, UniProt P49760)", "settings": "CLK2; 1000 nM; read-out: Percent Control"}, "[14]": {"biological_target": "panel of 468 diverse kinases (Homo sapiens, UniProt P42679)", "settings": "CTK; 1000 nM; read-out: Percent Control"}, "[15]": {"biological_target": "panel of 468 diverse kinases (Homo sapiens, UniProt O15111)", "settings": "IKK-alpha; 1000 nM; read-out: Percent Control"}, "[16]": {"biological_target": "panel of 468 diverse kinases (Homo sapiens, UniProt Q99683)", "settings": "ASK1; 1000 nM; read-out: Percent Control"}, "[17]": {"biological_target": "panel of 468 diverse kinases (Homo sapiens, UniProt Q05397)", "sequence (Q05397 2-1052 limits assumed)": "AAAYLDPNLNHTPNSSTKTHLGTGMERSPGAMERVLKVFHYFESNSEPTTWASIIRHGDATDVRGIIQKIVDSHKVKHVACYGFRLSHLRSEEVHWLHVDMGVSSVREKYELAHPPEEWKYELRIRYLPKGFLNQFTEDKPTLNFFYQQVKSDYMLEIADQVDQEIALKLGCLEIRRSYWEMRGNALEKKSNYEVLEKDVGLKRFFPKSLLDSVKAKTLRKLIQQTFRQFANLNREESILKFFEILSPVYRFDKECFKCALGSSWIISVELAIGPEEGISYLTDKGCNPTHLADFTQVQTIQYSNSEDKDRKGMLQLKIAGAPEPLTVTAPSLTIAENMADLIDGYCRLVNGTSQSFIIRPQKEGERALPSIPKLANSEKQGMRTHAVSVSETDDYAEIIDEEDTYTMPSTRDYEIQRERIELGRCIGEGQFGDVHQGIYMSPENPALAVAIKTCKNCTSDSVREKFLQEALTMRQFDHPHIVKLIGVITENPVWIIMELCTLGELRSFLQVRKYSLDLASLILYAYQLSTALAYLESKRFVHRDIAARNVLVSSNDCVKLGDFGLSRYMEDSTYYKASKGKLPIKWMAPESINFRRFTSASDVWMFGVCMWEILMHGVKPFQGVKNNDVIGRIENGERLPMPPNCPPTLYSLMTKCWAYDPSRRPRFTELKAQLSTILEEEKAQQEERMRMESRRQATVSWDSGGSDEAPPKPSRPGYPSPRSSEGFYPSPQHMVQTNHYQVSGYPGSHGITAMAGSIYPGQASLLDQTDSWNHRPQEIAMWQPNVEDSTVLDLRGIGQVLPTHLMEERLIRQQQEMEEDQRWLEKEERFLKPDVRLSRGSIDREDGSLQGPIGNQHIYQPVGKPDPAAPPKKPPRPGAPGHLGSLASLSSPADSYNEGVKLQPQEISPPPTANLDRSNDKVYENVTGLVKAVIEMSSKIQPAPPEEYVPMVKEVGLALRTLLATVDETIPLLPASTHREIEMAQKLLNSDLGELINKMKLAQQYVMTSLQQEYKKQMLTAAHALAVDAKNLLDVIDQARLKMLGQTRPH", "settings": "FAK; 1000 nM; read-out: Percent Control"}, "[18]": {"biological_target": "panel of 468 diverse kinases (Homo sapiens, UniProt P10721, V559D)", "sequence (P10721 26-976 V559D limits assumed)": "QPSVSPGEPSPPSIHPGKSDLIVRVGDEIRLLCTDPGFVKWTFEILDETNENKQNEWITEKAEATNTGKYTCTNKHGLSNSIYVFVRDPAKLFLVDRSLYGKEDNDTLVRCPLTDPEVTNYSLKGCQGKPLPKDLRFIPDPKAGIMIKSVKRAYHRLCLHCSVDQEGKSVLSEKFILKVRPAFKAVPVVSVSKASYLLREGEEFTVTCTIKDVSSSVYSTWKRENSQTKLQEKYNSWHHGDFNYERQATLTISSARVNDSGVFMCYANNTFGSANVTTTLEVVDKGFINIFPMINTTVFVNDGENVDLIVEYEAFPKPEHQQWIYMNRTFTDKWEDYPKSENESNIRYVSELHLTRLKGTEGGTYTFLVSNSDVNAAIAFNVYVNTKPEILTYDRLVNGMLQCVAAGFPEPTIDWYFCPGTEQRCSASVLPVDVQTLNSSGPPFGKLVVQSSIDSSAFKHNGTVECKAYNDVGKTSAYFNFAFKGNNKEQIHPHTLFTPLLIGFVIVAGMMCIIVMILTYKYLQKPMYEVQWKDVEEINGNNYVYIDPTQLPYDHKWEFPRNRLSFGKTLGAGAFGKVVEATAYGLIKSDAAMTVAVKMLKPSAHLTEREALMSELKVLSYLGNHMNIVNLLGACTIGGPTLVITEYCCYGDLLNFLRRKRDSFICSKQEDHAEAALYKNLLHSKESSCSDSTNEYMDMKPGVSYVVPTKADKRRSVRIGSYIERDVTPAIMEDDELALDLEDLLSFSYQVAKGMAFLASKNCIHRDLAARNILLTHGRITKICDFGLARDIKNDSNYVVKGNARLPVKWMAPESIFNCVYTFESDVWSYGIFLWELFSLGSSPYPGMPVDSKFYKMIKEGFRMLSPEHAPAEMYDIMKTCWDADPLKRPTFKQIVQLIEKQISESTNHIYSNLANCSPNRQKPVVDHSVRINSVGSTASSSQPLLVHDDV", "settings": "KIT(V559D); 1000 nM; read-out: Percent Control"}, "[19]": {"biological_target": "panel of 468 diverse kinases (Homo sapiens, UniProt P22455)", "sequence (P22455 22-802 limits assumed)": "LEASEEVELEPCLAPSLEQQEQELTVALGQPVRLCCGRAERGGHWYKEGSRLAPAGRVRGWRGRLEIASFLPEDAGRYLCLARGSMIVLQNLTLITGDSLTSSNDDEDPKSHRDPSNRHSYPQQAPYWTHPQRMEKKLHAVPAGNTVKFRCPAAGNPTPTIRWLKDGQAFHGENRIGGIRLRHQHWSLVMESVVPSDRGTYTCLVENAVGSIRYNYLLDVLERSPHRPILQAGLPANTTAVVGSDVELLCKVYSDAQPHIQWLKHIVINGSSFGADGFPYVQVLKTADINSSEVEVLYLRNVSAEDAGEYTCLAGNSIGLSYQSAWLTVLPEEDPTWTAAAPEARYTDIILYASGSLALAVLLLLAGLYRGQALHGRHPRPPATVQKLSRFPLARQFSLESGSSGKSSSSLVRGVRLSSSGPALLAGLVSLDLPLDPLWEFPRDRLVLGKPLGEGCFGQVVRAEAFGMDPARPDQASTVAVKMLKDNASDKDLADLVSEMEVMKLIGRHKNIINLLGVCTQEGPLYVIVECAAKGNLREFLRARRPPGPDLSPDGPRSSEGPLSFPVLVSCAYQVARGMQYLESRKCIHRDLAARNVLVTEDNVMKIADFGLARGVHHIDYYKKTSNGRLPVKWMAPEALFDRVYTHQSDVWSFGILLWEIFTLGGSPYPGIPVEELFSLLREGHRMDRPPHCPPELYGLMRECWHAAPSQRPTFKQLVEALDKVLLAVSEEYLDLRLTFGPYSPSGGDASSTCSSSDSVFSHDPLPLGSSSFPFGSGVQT", "settings": "FGFR4; 1000 nM; read-out: Percent Control"}, "[20]": {"biological_target": "panel of 468 diverse kinases (Homo sapiens, UniProt Q9H2X6)", "settings": "HIPK2; 1000 nM; read-out: Percent Control"}, "[21]": {"biological_target": "panel of 468 diverse kinases (Homo sapiens, UniProt Q9NY57)", "settings": "YANK2; 1000 nM; read-out: Percent Control"}, "[22]": {"biological_target": "panel of 468 diverse kinases (Homo sapiens, UniProt P42336, E545A)", "settings": "PIK3CA(E545A); 1000 nM; read-out: Percent Control"}, "[23]": {"biological_target": "panel of 468 diverse kinases (Homo sapiens, UniProt Q9UKI8)", "settings": "TLK1; 1000 nM; read-out: Percent Control"}, "[24]": {"biological_target": "panel of 468 diverse kinases (Homo sapiens, UniProt P00533, G719S)", "settings": "EGFR(G719S); 1000 nM; read-out: Percent Control"}, "[25]": {"biological_target": "panel of 468 diverse kinases (Homo sapiens, UniProt P00533, T790M)", "settings": "EGFR(T790M); 1000 nM; read-out: Percent Control"}, "[26]": {"biological_target": "panel of 468 diverse kinases (Homo sapiens, UniProt Q9UKE5)", "settings": "TNIK; 1000 nM; read-out: Percent Control"}, "[27]": {"biological_target": "panel of 468 diverse kinases (Homo sapiens, UniProt P0C264)", "settings": "SgK110; 1000 nM; read-out: Percent Control"}, "[28]": {"biological_target": "panel of 468 diverse kinases (Homo sapiens, UniProt P49759)", "settings": "CLK1; 1000 nM; read-out: Percent Control"}, "[29]": {"biological_target": "panel of 468 diverse kinases (Homo sapiens, UniProt Q9BX84)", "settings": "TRPM6; 1000 nM; read-out: Percent Control"}, "[30]": {"biological_target": "panel of 468 diverse kinases (Homo sapiens, UniProt O14920)", "settings": "IKK-beta; 1000 nM; read-out: Percent Control"}}, "note": "Where two headings read alike, the source gives them in different places."}
{"smiles": "COc1cc2nc(NC3CC3)nc(NC3CCN(C(C)C)CC3)c2cc1OC", "note": "[Formula IV]", "values": [{"measurement": "remaining activity at 1 µM", "setting": "[1]", "value": 100, "unit": "%"}, {"measurement": "remaining activity at 1 µM", "setting": "[2]; ABL1-nonphosphorylated", "value": 91, "unit": "%"}, {"measurement": "remaining activity at 1 µM", "setting": "[2]; ABL1-phosphorylated", "value": 88, "unit": "%"}, {"measurement": "remaining activity at 1 µM", "setting": "[3]; ABL1(Q252H)-nonphosphorylated", "value": 84, "unit": "%"}, {"measurement": "remaining activity at 1 µM", "setting": "[3]; ABL1(Q252H)-phosphorylated", "value": 69, "unit": "%"}, {"measurement": "remaining activity at 1 µM", "setting": "[4]", "value": 86, "unit": "%"}, {"measurement": "remaining activity at 1 µM", "setting": "[5]", "value": 100, "unit": "%"}, {"measurement": "remaining activity at 1 µM", "setting": "[6]", "value": 87, "unit": "%"}, {"measurement": "remaining activity at 1 µM", "setting": "[7]", "value": 100, "unit": "%"}, {"measurement": "remaining activity at 1 µM", "setting": "[8]", "value": 97, "unit": "%"}, {"measurement": "remaining activity at 1 µM", "setting": "[9]", "value": 78, "unit": "%"}, {"measurement": "remaining activity at 1 µM", "setting": "[10]", "value": 98, "unit": "%"}, {"measurement": "remaining activity at 1 µM", "setting": "[11]", "value": 100, "unit": "%"}, {"measurement": "remaining activity at 1 µM", "setting": "[12]", "value": 81, "unit": "%"}, {"measurement": "remaining activity at 1 µM", "setting": "[13]", "value": 90, "unit": "%"}, {"measurement": "remaining activity at 1 µM", "setting": "[14]", "value": 32, "unit": "%"}, {"measurement": "remaining activity at 1 µM", "setting": "[15]", "value": 80, "unit": "%"}, {"measurement": "remaining activity at 1 µM", "setting": "[16]", "value": 75, "unit": "%"}, {"measurement": "remaining activity at 1 µM", "setting": "[17]", "value": 88, "unit": "%"}, {"measurement": "remaining activity at 1 µM", "setting": "[18]", "value": 100, "unit": "%"}, {"measurement": "remaining activity at 1 µM", "setting": "[19]", "value": 100, "unit": "%"}, {"measurement": "remaining activity at 1 µM", "setting": "[20]", "value": 64, "unit": "%"}, {"measurement": "remaining activity at 1 µM", "setting": "[21]", "value": 56, "unit": "%"}, {"measurement": "remaining activity at 1 µM", "setting": "[22]", "value": 89, "unit": "%"}, {"measurement": "remaining activity at 1 µM", "setting": "[23]", "value": 90, "unit": "%"}, {"measurement": "remaining activity at 1 µM", "setting": "[24]", "value": 91, "unit": "%"}, {"measurement": "remaining activity at 1 µM", "setting": "[25]", "value": 44, "unit": "%"}, {"measurement": "remaining activity at 1 µM", "setting": "[26]", "value": 98, "unit": "%"}, {"measurement": "remaining activity at 1 µM", "setting": "[27]", "value": 97, "unit": "%"}, {"measurement": "remaining activity at 1 µM", "setting": "[28]", "value": 96, "unit": "%"}, {"measurement": "remaining activity at 1 µM", "setting": "[29]", "value": 90, "unit": "%"}, {"measurement": "remaining activity at 1 µM", "setting": "[30]", "value": 66, "unit": "%"}]}
